Patent US20250382657A1, “METHODS FOR MAPPING BINDING SITES OF COMPOUNDS” (Cambridge Enterprise Limited, priority 2022, published 2025)
Blank lines part the entries; values can stand above or below the molecule they belong to.

Legend:
[1] = biological target: T1, BRD4 (Homo sapiens, UniProt O60885); conditions: K562 cells; published data; cited from earlier work
T1 construct: U-2 OS and K562 suspension cells were harvested by centrifugation and fixed in 0.1% formaldehyde; endogenous in cells; host or cells: K562 (human leukaemia) and U-2 OS cells

[2] = system: dsDNA; experiment: FRET-melting assay; type: binding; conditions: 1 μM; negative control dsDNA; n=2
Procedure: 400 nM FAM-TAMRA dual-labelled oligonucleotides (Biomers) were annealed in assay buffer (60 mM potassium cacodylate, pH=7.4) at 95° C. for 5 min followed by gradually cooling to 20° C. A series of probe concentrations were prepared in a 8-well strip tube: 150 μL of 6 μM ligand in assay buffer was prepared as the initial concentration. Subsequent serial dilutions were made by adding 100 μL of probe solutions to 50 μL of assay buffer, resulting in 12 concentrations including a control (1% DMSO). 25 μL per solutions were transferred to 96-well plate, followed by adding 25 μL of annealed oligonucleotide solutions to each well. The plate was then sealed with an adhesive transparent cover and shaken gently for 10 min at room temperature. Measurements of restoring FAM signal were recorded on a Bio-Rad CFX96 Touch Real-Time PCR Detection System employing a temperature gradient from 25° C. to 95° C. at 0.5° C./min. Melting temperatures were determined by the first derivative maxima of relative fluorescence unit (RFU) value against […], and ΔTm was calculated by baseline correction of melting temperatures subtracting control group. A one-site binding model in GraphPad Prism 7 was utilised to fit FRET Tm curves. Mean was calculated from two replicates.

[3] = system: K562 cells; experiment: Dox-bio1 Chemmap in Tucidinostat-treated K562 cells; type: cell-based, human; conditions: Tucidinostat 1 μM, 72 h
Excerpt: Mycoplasma-free human chronic myelogenous leukemia K562 cells (RRID:CVCL_0004) derived from a person were purchased from ATCC and cultured in RPMI 1640 (Gibco, 21875034) supplemented with 10% heat-inactivated fetal bovine serum (FBS, Gibco, A3840401). Human bone osteosarcoma epithelial U-2 OS cells (RRID:CVCL_0042) derived from a moderately differentiated sarcoma of the tibia of a person osteosarcoma were obtained from ATCC and cultured in DMEM (Gibco, 41966029) supplemented with 10% FBS. Both cell lines were grown in accordance with ENCODE cell culture protocols and periodically tested for mycoplasma contamination and identity confirmed by short tandem repeat (STR) typing. HDAC inhibitors (HDACi) were prepared at 10 mM as stock solution in DMSO. Cells were treated with HDACi dissolved to 1 μM final concentration or an equal concentration of vehicle (0.1% DMSO) for 72 hs.
Cell preparation. U-2 OS cells were detached using accutase and immediately quenched using complete culture media. U-2 OS and K562 suspension cells were harvested by centrifugation and fixed in 0.1% formaldehyde (Thermo Scientific, 28906) in PBS for 2 min at room temperature, followed by quenching with glycine to a final concentration of 75 mM. […]

[4] = biological target: T1, BRD4; experiment: Chemmap genome-wide mapping of JQ1 binding sites, compared with BRD4 CUT&Tag; conditions: 150,000 K562 cells; JQ1-bio probe
Procedure: BRD4 CUT&Tag was performed as described before (H.S. Kaya-Okur, et al. Nat. Protoc., 15 (2020) e23641). Briefly, cells were incubated with activated concanavalin A-coated magnetic beads (Bangs Labs, BP531). The bead-bound cells were permeabilized and incubated with anti-BRD4 (E2A7X) rabbit antibody (Cell Signalling Technology, 13440), followed by rabbit anti-mouse IgG antibody (Antibodies-Online, ABIN101961, RRID:AB_10775589). Diluted pA-Tn5 adapter complex was then added followed by the tagmentation reaction. Extracted DNA fragments were used for library preparation and Illumina sequencing.

[5] = system: genomic DNA; experiment: Chemmap genome-wide mapping of biotinylated doxorubicin binding sites; design: species or system human; conditions: K562 cells
Procedure: (§1) Cell preparation. U-2 OS cells were detached using accutase and immediately quenched using complete culture media. U-2 OS and K562 suspension cells were harvested by centrifugation and fixed in 0.1% formaldehyde (Thermo Scientific, 28906) in PBS for 2 min at room temperature, followed by quenching with glycine to a final concentration of 75 mM. Fixed cells were collected by centrifugation at 600×g for 4 min, followed by resuspension in cold wash buffer (20 mM HEPES pH7.5, 150 mM NaCl and 0.5 mM spermidine (Sigma, S0266)) in nuclease-free water supplemented with a complete Protease Inhibitor, EDTA-free (Sigma, 11873580001). (Note: For Chemmap of G4 ligands NaCl was replaced by equivalent concentrations of KCl in all buffers to maintain G4 stability. For optimal results, the concentration of cells needs to be adjusted based on target abundance and relative affinity of the probes. We employed cells at 1500 cells/μL (JQ1-bio) and 6000 cells/μL (G4 ligands and biotinylated doxorubicin))
Probe-1st Ab complex assembly. Compound stock solution in DMSO was diluted to 10 μM in antibody buffer (2 mM EDTA, 0.1% BSA (Sigma, A8577), 0.05% digitonin (EMD Millipore, 300410) in wash buffer). For 5 samples, 20 μL probe solution (10 μM) and 16.7 μL anti-biotin (D5A7) Rabbit mAb (Cell Signaling Technology, 5597, concentration is ˜10 μM) were added to 200 μL antibody buffer and incubated on ice for 1 h to perform a complex at high concentration (probe in excess 1.2:1 to avoid non-specific antibody binding). […]
Bead capture. For 5 samples, 50 μL (JQ1-bio) or 75 μL (G4 ligands and biotinylated Doxorubicin) concanavalin A beads (Bangs Labs, BP531) were washed twice in 1 mL binding buffer (20 mM HEPES pH 7.5, 10 mM KCl, 1 mM CaCl2, 1 mM MnCl2 in nuclease-free water) and resuspended in 75 μL binding buffer. 100 µL of cell suspension were incubated with 10 μL pre-washed concanavalin A beads at 25° C. for 10 min at 600 rpm. Beads-bound cells were gently washed twice with wash buffer, before resuspending in 100 μL probe-1st Ab solution and incubating at 4° C. overnight at 600 rpm.
2nd Ab-Tn5 transposome complexes assembly. For 5 samples, 2.5 μL 2nd Ab (Antibodies-Online, ABIN101961, RRID:AB_10775589) and 5 μL pA-Tn5 were added to 200 μL Dig-300 buffer (20 mM HEPES pH 7.5, 300 mM NaCl, 0.5 mM spermidine, 0.01% digitonin in nuclease-free water supplemented with Complete Protease Inhibitor, EDTA-free) and incubated on ice for 1 h. 300 μL antibody buffer were added to the 2nd-Tn5 complexes solution. (2nd Ab-Tn5 complexes at a ratio of 2:1).
Tagmentation. Cells were washed 3× with 500 μL Dig-wash buffer (0.05% digitonin in wash buffer) and resuspended in 100 μL 2nd Ab-Tn5 transposome solution and incubated at 25° C. for 1 h at 600 rpm. […]

[6] = system: DNA G-quadruplex; experiment: Chemmap genome-wide mapping of G4 ligand binding sites (PDS, PhenDC3); design: species or system human; conditions: K562 cells; biotinylated probes
Procedure: as §1
(§2) Probe-1st Ab complex assembly. Compound stock solution in DMSO was diluted to 10 μM in antibody buffer (2 mM EDTA, 0.1% BSA (Sigma, A8577), 0.05% digitonin (EMD Millipore, 300410) in wash buffer). […]

[7] = system: DNA G-quadruplex; experiment: PDS Chemmap after treatment of live K562 cells with unmodified PDS (competition); type: cell-based, human; conditions: unmodified PDS 4 μM for 3 hr
Procedure: as §1, §2

SMILES: Cc1sc2c(c1C)C(c1ccc(Cl)cc1)=N[C@@H](CC(=O)NCCCNC(=O)OC1CC/C=C\CCC1)c1nnc(C)n1-2 (stereo partly shown) [JQ1-TCO]
signal averaged at BRD4 CUT&Tag high confidence loci [1]: close to the baseline

SMILES: C[n+]1cc(NC(=O)c2ccc3ccc4c(NCCCCNC(=O)CCc5cn(CCOCCOCCOCCNC(=O)CCCC[C@@H]6SC[C@@H]7NC(=O)N[C@@H]76)nn5)cc(C(=O)Nc5cc6ccccc6[n+](C)c5)nc4c3n2)cc2ccccc21 [PhenDC3-bio]
ΔTm on dsDNA [2]: 0 °C

SMILES: Nc1cc(F)ccc1NC(=O)c1ccc(CNC(=O)/C=C/c2cccnc2)cc1 [Tucidinostat]
effect on doxorubicin binding (differential binding analysis) [3]: enhances the binding of doxorubicin
Dox-bio1 binding sites within initial open chromatin region ([3]; 95% in vehicle group): 42%

SMILES: NCCOc1cc(NC(=O)c2cc(OCCNC(=O)CCOCCOCCOCCOCCNC(=O)CCCC[C@@H]3SC[C@@H]4NC(=O)N[C@@H]43)cc(C(=O)Nc3cc(OCCN)c4ccccc4n3)n2)nc2ccccc12 [PDS-bio]
ΔTm on dsDNA [2]: 0 °C

SMILES: COc1cccc2c1C(=O)c1c(O)c3c(c(O)c1C2=O)C[C@@](O)(C(=O)COC(=O)CCCC(=O)NCCOCCOCCOCCOCCNC(=O)CCCC[C@H]1SC[C@H]2NC(=O)N[C@H]21)C[C@@H]3O[C@H]1C[C@H](N)[C@H](O)[C@H](C)O1 [Dox-bio1]
material recovered compared to other tested probes ([5]; 200 nM, same condition): up to 30 fold
consensus peaks for both Dox-bio1 and ATAC-seq [5]: 12,896
peaks located in open chromatin regions mapped by ATAC-seq [5]: 95%
high confidence Dox-bio1 binding sites ([5]; depending on the probe concentration): around 14k

Further lines, with some results ahead:

JQ1 binding sites observed in each experiment [4]: around 10,000
SMILES: Cc1sc2c(c1C)C(c1ccc(Cl)cc1)=N[C@@H](CC(=O)NCCOCCOCCNC(=O)CCCC[C@@H]1SC[C@@H]3NC(=O)N[C@@H]31)c1nnc(C)n1-2 [JQ1-bio]

overlap of high confidence binding sites with G4-seq data (OQS) [6]: ~89%
SMILES: NCCOc1cc(C(=O)Nc2cc(OCCN)c3ccccc3n2)nc(C(=O)Nc2cc(OCCN)c3ccccc3n2)c1 [PDS, Pyridostatin]
ΔTm on dsDNA [2]: 0 °C
PDS Chemmap sites lost compared to untreated [7]: ~6000
PDS Chemmap sites lost compared to untreated (percent) [7]: 60%

overlap of high confidence binding sites with G4-seq data (OQS) [6]: ~88%
SMILES: C[n+]1cc(NC(=O)c2ccc3ccc4ccc(C(=O)Nc5cc6ccccc6[n+](C)c5)nc4c3n2)cc2ccccc21 [PhenDC3]
ΔTm on dsDNA [2]: 0 °C
